Experimental data taken from PMC7049616 (Acta Pharmaceutica Sinica. B, 2019).

Experiments:
TEL-FGFR1-BaF3 = test: cells; conditions: 72 h
TEL-EPHA2-BaF3 = test: Anti-proliferation assay; assay type: cell-based; conditions: 72 h
TEL-PDGFRa-BaF3 = test: cells; conditions: 72 h
TEL-RET-BaF3 = test: cells; conditions: 72 h
[1] = Acute toxicity study, single oral dose, 7 days observation; assay type: in vivo, ICR mice; conditions: for toxicity observation in acute toxicity study: ICR mice; for Number of deaths (death/total): female ICR mice, 7 days
BaF3 = test: Anti-proliferation assay; assay type: cell-based; conditions: Mus musculus, BaF3, 72 h
TEL-CSF1R-BaF3 = test: Anti-proliferation assay; assay type: cell-based; conditions: 72 h
TEL-FGFR2-BaF3 = test: Anti-proliferation assay; assay type: cell-based; conditions: 72 h
TEL-VEGFR1-BaF3 = test: Anti-proliferation assay; assay type: cell-based; conditions: 72 h
TEL-EPHA1-BaF3 = test: Anti-proliferation assay; assay type: cell-based; conditions: 72 h
Pharmacokinetics study = assay type: in vivo, Sprague–Dawley rats; conditions: male, Sprague-Dawley, rat, plasma
TEL-PDGFRb-BaF3 = test: cells; conditions: 72 h
P210-BaF3 = test: Anti-proliferation assay; assay type: cell-based; conditions: 72 h
TEL-FGFR4-BaF3 = test: Anti-proliferation assay; assay type: cell-based; conditions: 72 h
TEL-FGFR3-BaF3 = test: Anti-proliferation assay; assay type: cell-based; conditions: 72 h
TEL-cKIT-BaF3 = test: cells; conditions: 72 h
TEL-FLT3-BaF3 = test: cells; conditions: 72 h
TEL-BMX-BaF3 = test: Anti-proliferation assay; assay type: cell-based; conditions: 72 h
TEL-VEGFR3-BaF3 = test: Anti-proliferation assay; assay type: cell-based; conditions: 72 h
HUVEC cells = conditions: after 12 h

Q: What does the source list for CCN(CC)CCNC(=O)c1c(C)[nH]c(/C=C2\C(=O)Nc3ccc(F)cc32)c1C [Sunitinib]?
A: GI50 (TEL-FGFR1-BaF3): 1680 nM; GI50 (TEL-EPHA2-BaF3): 1270 nM; GI50 (TEL-PDGFRa-BaF3): 1 nM; GI50 (TEL-RET-BaF3): 110 nM; toxicity observation in acute toxicity study ([1]; single dose 500 mg/kg, recovered starting from day 4): apparent body weight loss; toxicity observation in acute toxicity study ([1]; single dose 1000 mg/kg): unrecovered body weight loss; toxicity observation in acute toxicity study ([1]; single dose 2000 mg/kg): mice death on day 3; Number of deaths (death/total) ([1]; single oral dose 125 mg/kg): ♀: 0/2; Number of deaths (death/total) ([1]; single oral dose 250 mg/kg): ♀: 0/2; Number of deaths (death/total) ([1]; single oral dose 500 mg/kg): ♀: 0/2; Number of deaths (death/total) ([1]; single oral dose 1000 mg/kg): ♀: 0/2; Number of deaths (death/total) ([1]; single oral dose 2000 mg/kg): ♀: 2/2; GI50 (BaF3): 2560 nM; GI50 (TEL-CSF1R-BaF3): 11 nM; GI50 (TEL-FGFR2-BaF3): 4 nM; GI50 (TEL-VEGFR1-BaF3): 350 nM; GI50 (TEL-EPHA1-BaF3): 3210 nM; AUC(0-inf) (Pharmacokinetics study; iv, 1 mg/kg): 145 ± 39.6 ng·h/mL; AUC(0-t) (Pharmacokinetics study; iv, 1 mg/kg): 143 ± 40.3 ng·h/mL; Cmax (Pharmacokinetics study; iv, 1 mg/kg): 236 ± 66.8 ng/mL; MRT last (Pharmacokinetics study; iv, 1 mg/kg): 0.98 ± 0.04 h; Tmax (Pharmacokinetics study; iv, 1 mg/kg): 0.33 h; half-life (Pharmacokinetics study; iv, 1 mg/kg): 1.05 ± 0.34 h; bioavailability (Pharmacokinetics study; oral, 10 mg/kg): 75.7%; AUC(0-inf) (Pharmacokinetics study; po, 10 mg/kg): 1100 ± 96.7 ng·h/mL; AUC(0-t) (Pharmacokinetics study; po, 10 mg/kg): 927 ± 108 ng·h/mL; Cmax (Pharmacokinetics study; po, 10 mg/kg): 175 ± 21.7 ng/mL; MRT last (Pharmacokinetics study; po, 10 mg/kg): 7.63 ± 0.3 h; Tmax (Pharmacokinetics study; po, 10 mg/kg): 1.25 ± 1.06 h; half-life (Pharmacokinetics study; po, 10 mg/kg): 1.38 ± 0.46 h; GI50 (TEL-PDGFRb-BaF3): < 1 nM; GI50 (P210-BaF3): 1460 nM; GI50 (TEL-FGFR4-BaF3): 2820 nM; GI50 (TEL-FGFR3-BaF3): 370 nM; GI50 (TEL-cKIT-BaF3): 81 nM; GI50 (TEL-FLT3-BaF3): 32 nM; GI50 (TEL-BMX-BaF3): 3020 nM; GI50 (TEL-VEGFR3-BaF3): 570 nM; HUVEC migration in wound-healing assay (HUVEC cells): less migrated HUVEC cells
